Laboratory results taken from US11268958B2, “Bacteria-specific labeled substrtates as imaging biomarkers to diagnose, locate, and monitor infections” (THE JOHNS HOPKINS UNIVERSITY, priority 2012, dated 2022).
Like-named read-outs stand apart in the source and are kept apart here.

Key:
[1] = system: Staphylococcus aureus, Escherichia coli, Mycobacterium smegmatis; assay: Differential intracellular accumulation in three model bacteria; conditions: S. aureus, E. coli, M. smegmatis
Experimental: (§3) In vitro uptake assays: Freeze dried reference strains of various bacterial species were purchased from American Type Culture Collection (Manassas, Va.) and grown to mid-log phase (OD600 1.0) in Lysogeny Broth (LB) or Middlebrook 7H9 broth supplemented with 10% oleic acid-albumin-dextrose-catalase (Difco, Detroit, Mich.) and 0.05% Tween 80 (Sigma). The number of colony forming units (CFUs) were enumerated by dilution and plating onto solidified media. Tracer uptake assays were performed by incubating bacterial cultures with 7.4 kBq per ml culture of tracer at 37° C. with rapid agitation for 4 hours, with sampling at 0, 30, 120, and 240 minutes. As a control, heat killed (90° C. for 20 minutes) bacteria were similarly incubated with each tracer. Bacteria were pelleted by centrifugation and washed three times with PBS. The activity for each pellet was measured using an automated gamma counter (1282 Compugamma CS Universal gamma counter, LKB Wallac). Background counts were subtracted from sample counts. Six independent replicates were used for each tracer, and for each bacterial strain. Uptake was expressed as the percentage of total tracer added to the culture that resided within the cell pellet.

J774 macrophages = assay: Tracer uptake in host cells (J774 macrophages); type: cell-based; conditions: for accumulation in eukaryotic cell line: J774 macrophage (data not shown)
Staphylococcus aureus = assay: Intracellular tracer uptake assay in S. aureus cultures; type: cell-based; conditions: for probe incorporated by bacteria (percent of total radioactivity) / intracellular uptake: S. aureus; for probe incorporated by bacteria (percent of total radioactivity): gram positive control, 120 minutes
Escherichia coli = assay: Intracellular tracer uptake assay in E. coli cultures; type: cell-based
heat killed bacteria = assay: Tracer uptake in heat killed bacteria (negative control); type: cell-based
Excerpt: Background counts were subtracted from sample counts.
(§1) [^18F]FDS uptake and imaging. […] Tissues were collected for direct gamma counting.

[2] = system: Mycobacterium tuberculosis
Experimental: as §3

WEHI 164 fibroblasts = assay: Tracer uptake in WEHI 164 fibroblasts; type: cell-based; conditions: WEHI 164 fibroblast (data not shown)
E. coli = conditions: for right thigh vs. left thigh uptake ratio (gamma counts of resected tissues) / PET signal intensity, infected right thigh versus control left thigh (ROIs): live E. coli right thigh, heat killed E. coli left thigh; for PET signal intensity, infected right thigh versus control left thigh (ROIs): 8 hours incubation
S. aureus = assay: Scintillation counting of resected tissues in S. aureus thigh infection vs LPS; type: in vivo, CBA/J mice; conditions: live S. aureus right thigh, 50 μg LPS left thigh, IV
Experimental: We next investigated whether [^3H]-2-F-PABA was capable of detecting infection with S. aureus in vivo. […] [^3H]-2-F-PABA was injected IV using a tail vein catheter. Mice were sacrificed following injection, tissues were then resected and radiotracer uptake measured by scintillation counting.

[3] = system: Enterobacteriaceae family; assay: [18F]FDS uptake in representative organisms: Enterobacteriaceae; type: cell-based; conditions: members of the Enterobacteriaceae family
Experimental: as §1
(§2) To further assess the specificity of uptake, E. coli cultures were co-incubated with [^18F]FDS and increasing concentrations of unlabeled sorbitol (FIG. 6B). […] The presence of a srl gene cassette responsible for sorbitol transport, phosphorylation, and oxidation was noted within the annotated genome of E. coli. To predict the range of organisms capable of [^18F]FDS uptake, and therefore detection by PET, the srlD, the gene encoding E. coli sorbitol-6-phosphate dehydrogenase was used to query the UniProtKB database of genome sequenced bacterial species. Alignment and percentage identity was calculated using ClustalOmega. We then selected representative organisms from this panel to test for [^18F]FDS uptake (FIG. 6C).

[4] = system: Enterococcus, Staphylococcus and Streptococcus species; assay: [18F]FDS uptake in representative organisms: gram positive organisms; type: cell-based
Experimental: as §1, §2

Pseudomonas aeruginosa = assay: [18F]FDS uptake in representative organisms: Pseudomonas aeruginosa; type: cell-based; conditions: aerobic gram-negative rod Pseudomonas aeruginosa
Experimental: as §1, §2

K. pneumoniae [5] = assay: PET imaging and gamma counting in K. pneumoniae pulmonary infection model; type: in vivo, CBA/J mice
K. pneumoniae [6] = assay: Intracellular tracer uptake assay in K. pneumoniae cultures; conditions: after 120 minutes
Experimental: as §3

E. coli vs S. aureus = assay: PET imaging and gamma counting in mixed infection model (E. coli right thigh, S. aureus left thigh); conditions: 6 hours incubation, imaging
[7] = system: Human Brain Microvascular Endothelial Cells (HBMEC); conditions: 2 h
Mycobacterium smegmatis = assay: Intracellular tracer uptake assay in M. smegmatis cultures; conditions: 2 hours of incubation
Experimental: as §3

[8] = M. tb, ^3H labeled tracers, 18 hours of incubation

## O=C[C@H](O)[C@@H](O)[C@H](O)CO [XYL, D-xylose]
[1]
  species that take up the compound (differential uptake): E. coli alone

## Nc1ccc(C(=O)O)cc1 [PABA, p-aminobenzoic acid]
J774 macrophages; J774 macrophages, corresponding time-points (2 and 18 hours)
  accumulation in host-cells: no significant accumulation
Staphylococcus aureus; S. aureus mid log cultures
  uptake saturability/specificity: saturable and specific
Escherichia coli; E. coli mid log cultures
  uptake saturability/specificity: saturable and specific
Heat killed bacteria
  uptake in heat killed bacteria: no uptake
[2]; 2 h
  accumulation (percent of total radioactivity in bacterial pellet): 32.9%
[2]; 18 h
  accumulation (percent of total radioactivity in bacterial pellet): 96.3%
  intracellular uptake: 58.5%
[2]; M. tuberculosis, excess unlabelled tracer
  uptake on addition of excess unlabelled tracer: saturable and specific

## OC[C@H]1OC(O)[C@H]([18F])[C@@H](O)[C@@H]1O (stereo partly shown) [[^18F]FDG, 2-[^18F]-fluorodeoxyglucose, reference compound]
J774 macrophages
  accumulation in eukaryotic cell line: accumulated
Staphylococcus aureus
  probe incorporated by bacteria (percent of total radioactivity): 50.3%±3.1%
WEHI 164 fibroblasts
  accumulation in eukaryotic cell line: accumulated
Heat killed bacteria
  uptake in heat killed bacteria: did not incorporate
E. coli
  right thigh vs. left thigh uptake ratio (gamma counts of resected tissues): 1.03±0.09
  PET signal intensity, infected right thigh versus control left thigh (ROIs): did not produce a significant difference
E. coli; mice, CT coregistration
  sites of PET signal concentration: heart and bladder

## Nc1ccc(C(=O)O)c(F)c1 [2-F-PABA, 2-fluoro-PABA]
S. aureus
  right thigh vs. left thigh uptake ratio (scintillation counting): 2.62±0.98
[2]; [8]
  intracellular uptake: 29.4%

## OC[C@@H](O)[C@@H](O)[C@H](O)[C@@H]([18F])CO [[^18F]FDS, 2-[^18F]-fluorodeoxysorbitol]
J774 macrophages
  accumulation in eukaryotic cell line: not
Staphylococcus aureus
  probe incorporated by bacteria (percent of total radioactivity): 0.47%±0.09%
Escherichia coli; E. coli K12, after 120 minutes
  probe associated with bacteria (percent of total radioactivity): 72.2%±9.0%
Escherichia coli; E. coli co-incubated with increasing unlabeled sorbitol
  concentration of unlabeled sorbitol that outcompetes uptake: above 40 ug/ml
Escherichia coli; E. coli co-incubated with increasing unlabeled sorbitol (FIG. 6B legend)
  concentration of unlabeled sorbitol that outcompetes uptake: above 40 μg/ml
WEHI 164 fibroblasts
  accumulation in eukaryotic cell line: not
Heat killed bacteria
  uptake in heat killed bacteria: did not incorporate
[3]
  accumulation of the probe: accumulated
[4]
  accumulation of the probe: did not accumulate
Pseudomonas aeruginosa
  accumulation of the probe: did not accumulate
K. pneumoniae [5]
  lung vs. blood gamma count ratio: 10.89±4.09
K. pneumoniae [5]; 18.5 MBq (data not shown)
  ratio of standardized uptake values, infiltrated vs normal lung tissue ROIs: 5.02±66.33
E. coli
  right thigh vs. left thigh uptake ratio (gamma counts of resected tissues): 16.37±4.12
  PET signal intensity, infected right thigh versus control left thigh (ROIs): 12 fold
E. coli; mice, over 120 minutes of recording (data not shown)
  route of clearance from circulation: predominantly by the kidneys
K. pneumoniae [6]
  probe associated with bacteria (percent of total radioactivity): 71.1%±8.6%
E. coli vs S. aureus
  PET signal at E. coli infected thigh versus S. aureus infected thigh: significantly more intensity

## NC(CCCC(N)C(=O)O)C(=O)O (stereo not shown) [DAP, 2,6-diaminopimelic acid]
[1]
  species that take up the compound (differential uptake): E. coli and M. smegmatis

## OC[C@@H](O)[C@@H](O)[C@H](O)[C@H](O)CO [[^14C] D-mannitol, D-mannitol]
J774 macrophages; 2 h
  uptake: < 5%
Staphylococcus aureus; 30 minutes, 5 mM glucose
  intracellular uptake: 33%
Staphylococcus aureus; 30 minutes, 10 mM glucose
  intracellular uptake: 30%
Staphylococcus aureus; 30 minutes, without any glucose in the media
  intracellular uptake: 53.5%
Staphylococcus aureus; 2 hours of incubation
  intracellular uptake: 66%
Escherichia coli; E. coli, 2 hours of incubation
  intracellular uptake: 82%
Heat killed bacteria
  uptake in heat killed bacteria: No uptake
[7]
  uptake: < 5%
Mycobacterium smegmatis
  intracellular uptake: 83%

## Nc1ccc(C(=O)O)cc1F [3-F-PABA, 3-fluoro-PABA]
[2]; [8]
  intracellular uptake: 11.2%
